From patent US5591741A, “Fungicidal spiroheterocyclic derivatives” (American Cyanamid Company, priority 1993, dated 1997)

Tests used:
[1] = system: Erysiphe graminis f.sp. hordei; assay: Activity against barley powdery mildew, direct therapeutic (EGT); format: in vivo; conditions: direct therapeutic foliar spray, 600 ppm, up to 7 days
Summary of the method: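 A curative spray at 600 ppm was applied to single-leaf Golden Promise barley inoculated with powdery mildew conidia the previous day. After up to 7 days at 18 °C and 40% humidity, disease control was rated from percent leaf area sporulating relative to untreated or diluent-sprayed controls.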

[2] = system: Erysiphe graminis f.sp. hordei; assay: Direct protectant activity against barley powdery mildew (EGP); format: in vivo; conditions: direct protectant foliar spray, 8 days
Summary of the method: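 Rating reflects percentage of leaf area with sporulation compared with untreated or diluent-sprayed controls. Protectant spray was applied to single-leaf barley (cv Golden Promise) 24 h before conidia inoculation. Plants were kept at 18 °C and 40% RH throughout, with 8 days of disease development.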

Botrytis cinerea = assay: Direct protectant activity against broad bean grey mould (BCB); format: in vivo; conditions: direct protectant foliar spray, 600 ppm, 4 days
Summary of the method: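 Protectant foliar test: lesion coverage assessed 4 days after inoculation and rated relative to untreated or diluent-sprayed plants. Compound applied at 600 ppm to cv The Sutton leaves 24 h before 10^6 conidia/ml suspension; incubation at 22 °C in high humidity.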

Rhizoctonia solani = assay: Activity against Rhizoctonia in-vitro (RSI); format: cell-based; conditions: 10 ppm, 10 days, 20° C., mycelial growth
Summary of the method: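 Compound at a final 10 ppm (acetone vehicle) in half-strength PDB, inoculated with 5×10^4 fragments/ml of shaken-culture R. solani mycelium. After incubation at 20° C for 10 days, growth scored as a rating versus untreated or diluent-treated controls.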

[3] = system: Pseudocercosporella herpotrichoides; assay: Activity against wheat eyespot in-vitro (PHI); format: cell-based; conditions: 10 ppm, 10 days, 20° C., mycelial growth
Summary of the method: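 Mycelial growth was scored after 10 days at 20 °C against untreated or diluent controls. The broth was half-strength potato dextrose, holding 10 ppm test compound (from acetone) and 5×10^4 fragments/ml of the eyespot fungus.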

Pyricularia oryzae = format: in vivo; conditions: rice seedlings, direct therapeutic foliar spray, 600 ppm, 4-5 days
Plasmopara viticola = assay: Antisporulant activity against vine downy mildew (PVA); format: in vivo; conditions: vine leaves, antisporulant foliar spray, 600 ppm, 750 l/ha
Summary of the method: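 Cabernet Sauvignon vines (~8 cm) inoculated on lower leaf surfaces with 5×10^4 zoosporangia/ml, held 24 h at 21° C high humidity then 24 h glasshouse. Infected leaves sprayed underside with 600 ppm compound in 1:1 water/acetone, 0.04% Tween 20, 750 l/ha; 96 h glasshouse, 24 h humidity. Sporulating leaf area rated versus control.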

Leptosphaeria nodorum = assay: Activity against wheat leafspot (LN); format: in vivo; conditions: direct therapeutic foliar spray, 600 ppm, 6-8 days
Summary of the method: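 Therapeutic foliar spray: compound at 600 ppm applied to single-leaf wheat (cv Norman) 24 h after inoculation with 1.5×10^6 conidia/ml. Disease control scored after 6-8 days at 22° C and 70% humidity as lesions per leaf versus untreated or diluent-sprayed controls.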

Alternaria solani = assay: Activity against tomato early blight (AS); format: in vivo; conditions: Table VI; tomato seedlings, contact prophylactic foliar spray, 4 days
Summary of the method: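 Plants were challenged with A. solani conidia (10^4 spores/ml) 24 h after a protective foliar spray of compound in 50:50 acetone/water plus 0.04% Tween 20. Held humid at 21° C for 4 days, then percent leaf area with lesions was scored as a rating relative to controls.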

Venturia inaequalis = assay: Activity against apple scab in-vitro (VII); format: cell-based; conditions: 10 ppm, 10 days, 20° C., mycelial growth
Summary of the method: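 V. inaequalis propagules (5×10^4/ml, malt agar-grown) were exposed in half-strength PDB to 10 ppm final test compound delivered in acetone. Growth was scored after incubation for 10 days at 20° C, as a rating relative to untreated or diluent-sprayed controls.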

Phytophthora infestans = format: in vivo; conditions: tomato, direct protectant foliar spray

## CCCN(C(CC)CC)C1COC2(CCC(C(C)(C)C)CC2)C1 (centres unmarked) [Compound 96]
[1]
  disease control rating EGT: 2 (greater than 80% disease control)
[2]
  disease control rating EGP: 2 (greater than 80% disease control)
Botrytis cinerea
  disease control rating BCB: 0 (less than 50% disease control)
Rhizoctonia solani
  disease control rating RSI: 1 (about 50-80% disease control)
[3]
  disease control rating PHI: 0 (less than 50% disease control)
Pyricularia oryzae
  disease control rating PO: 0 (less than 50% disease control)
Plasmopara viticola
  disease control rating PVA: 0 (less than 50% disease control)
Leptosphaeria nodorum
  disease control rating LN: 0 (less than 50% disease control)
Alternaria solani
  disease control rating AS: 0 (less than 50% disease control)
Venturia inaequalis
  disease control rating VII: 1 (about 50-80% disease control)
Phytophthora infestans
  disease control rating PIP: 0 (less than 50% disease control)

## CC(C)(C)C1CCC2(CC1)CC(NC1CCC3CCCCC3C1)CO2 (centres unmarked) [Compound 138]
[1]
  disease control rating EGT: 0 (less than 50% disease control)
[2]
  disease control rating EGP: 0 (less than 50% disease control)
Botrytis cinerea
  disease control rating BCB: 0 (less than 50% disease control)
Rhizoctonia solani
  disease control rating RSI: 0 (less than 50% disease control)
[3]
  disease control rating PHI: 0 (less than 50% disease control)
Pyricularia oryzae
  disease control rating PO: 0 (less than 50% disease control)
Plasmopara viticola
  disease control rating PVA: 0 (less than 50% disease control)
Leptosphaeria nodorum
  disease control rating LN: 0 (less than 50% disease control)
Alternaria solani
  disease control rating AS: 0 (less than 50% disease control)
Venturia inaequalis
  disease control rating VII: 0 (less than 50% disease control)
Phytophthora infestans
  disease control rating PIP: 2 (greater than 80% disease control)

## CCCCCN(CCCCC)C1COC2(CCC(C(C)(C)CC)CC2)C1 (centres unmarked) [Compound 50]
[1]
  disease control rating EGT: 2 (greater than 80% disease control)
[2]
  disease control rating EGP: 2 (greater than 80% disease control)
Botrytis cinerea
  disease control rating BCB: 0 (less than 50% disease control)
Rhizoctonia solani
  disease control rating RSI: 0 (less than 50% disease control)
[3]
  disease control rating PHI: 0 (less than 50% disease control)
Pyricularia oryzae
  disease control rating PO: 0 (less than 50% disease control)
Plasmopara viticola
  disease control rating PVA: 0 (less than 50% disease control)
Leptosphaeria nodorum
  disease control rating LN: 0 (less than 50% disease control)
Alternaria solani
  disease control rating AS: 0 (less than 50% disease control)
Venturia inaequalis
  disease control rating VII: 1 (about 50-80% disease control)
Phytophthora infestans
  disease control rating PIP: 0 (less than 50% disease control)

## CN(CCC1CCCCC1)C1COC2(CCC(C(C)(C)C)CC2)C1 (centres unmarked) [Compound 117]
[1]
  disease control rating EGT: 2 (greater than 80% disease control)
[2]
  disease control rating EGP: 2 (greater than 80% disease control)
Botrytis cinerea
  disease control rating BCB: 0 (less than 50% disease control)
Rhizoctonia solani
  disease control rating RSI: 1 (about 50-80% disease control)
[3]
  disease control rating PHI: 1 (about 50-80% disease control)
Pyricularia oryzae
  disease control rating PO: 0 (less than 50% disease control)
Plasmopara viticola
  disease control rating PVA: 0 (less than 50% disease control)
Leptosphaeria nodorum
  disease control rating LN: 0 (less than 50% disease control)
Alternaria solani
  disease control rating AS: 2 (greater than 80% disease control)
Venturia inaequalis
  disease control rating VII: 1 (about 50-80% disease control)
Phytophthora infestans
  disease control rating PIP: 0 (less than 50% disease control)

## CCCCCCN(C)C1COC2(CCC(c3ccccc3)CC2)C1 (centres unmarked) [Compound 61]
[1]
  disease control rating EGT: 2 (greater than 80% disease control)
[2]
  disease control rating EGP: 2 (greater than 80% disease control)
Botrytis cinerea
  disease control rating BCB: 0 (less than 50% disease control)
Rhizoctonia solani
  disease control rating RSI: 0 (less than 50% disease control)
[3]
  disease control rating PHI: 2 (greater than 80% disease control)
Pyricularia oryzae
  disease control rating PO: 0 (less than 50% disease control)
Plasmopara viticola
  disease control rating PVA: 0 (less than 50% disease control)
Leptosphaeria nodorum
  disease control rating LN: 1 (about 50-80% disease control)
Alternaria solani
  disease control rating AS: 0 (less than 50% disease control)
Venturia inaequalis
  disease control rating VII: 1 (about 50-80% disease control)
Phytophthora infestans
  disease control rating PIP: 0 (less than 50% disease control)

## C=CCN(CC=C)C1COC2(CCC(C(C)(C)C)CC2)C1 (centres unmarked) [Compound 103]
[1]
  disease control rating EGT: 2 (greater than 80% disease control)
[2]
  disease control rating EGP: 2 (greater than 80% disease control)
Botrytis cinerea
  disease control rating BCB: 2 (greater than 80% disease control)
Rhizoctonia solani
  disease control rating RSI: 0 (less than 50% disease control)
[3]
  disease control rating PHI: 0 (less than 50% disease control)
Pyricularia oryzae
  disease control rating PO: 0 (less than 50% disease control)
Plasmopara viticola
  disease control rating PVA: 0 (less than 50% disease control)
Leptosphaeria nodorum
  disease control rating LN: 0 (less than 50% disease control)
Alternaria solani
  disease control rating AS: 0 (less than 50% disease control)
Venturia inaequalis
  disease control rating VII: 1 (about 50-80% disease control)
Phytophthora infestans
  disease control rating PIP: 2 (greater than 80% disease control)

## CCCN(CC(C)C)C1COC2(CCC(C(C)(C)C)CC2)C1 (centres unmarked) [Compound 123]
[1]
  disease control rating EGT: 2 (greater than 80% disease control)
[2]
  disease control rating EGP: 2 (greater than 80% disease control)
Botrytis cinerea
  disease control rating BCB: 0 (less than 50% disease control)
Rhizoctonia solani
  disease control rating RSI: 0 (less than 50% disease control)
[3]
  disease control rating PHI: 0 (less than 50% disease control)
Pyricularia oryzae
  disease control rating PO: 1 (about 50-80% disease control)
Plasmopara viticola
  disease control rating PVA: 0 (less than 50% disease control)
Leptosphaeria nodorum
  disease control rating LN: 0 (less than 50% disease control)
Alternaria solani
  disease control rating AS: 0 (less than 50% disease control)
Venturia inaequalis
  disease control rating VII: 0 (less than 50% disease control)
Phytophthora infestans
  disease control rating PIP: 0 (less than 50% disease control)

## CC(C)CN(CC(C)C)CC1COC2(CCC(C(C)(C)C)CC2)C1 (centres unmarked) [Compound 186]
[1]
  disease control rating EGT: 0 (less than 50% disease control)
[2]
  disease control rating EGP: 2 (greater than 80% disease control)
Botrytis cinerea
  disease control rating BCB: 0 (less than 50% disease control)
Rhizoctonia solani
  disease control rating RSI: 0 (less than 50% disease control)
[3]
  disease control rating PHI: 0 (less than 50% disease control)
Pyricularia oryzae
  disease control rating PO: 0 (less than 50% disease control)
Plasmopara viticola
  disease control rating PVA: 0 (less than 50% disease control)
Leptosphaeria nodorum
  disease control rating LN: 0 (less than 50% disease control)
Alternaria solani
  disease control rating AS: 0 (less than 50% disease control)
Venturia inaequalis
  disease control rating VII: 0 (less than 50% disease control)
Phytophthora infestans
  disease control rating PIP: 0 (less than 50% disease control)

## CCCCCCCCCCCCNC1COC2(CCC(C(C)(C)C)CC2)C1 (centres unmarked) [Compound 43]
[1]
  disease control rating EGT: 2 (greater than 80% disease control)
[2]
  disease control rating EGP: 2 (greater than 80% disease control)
Botrytis cinerea
  disease control rating BCB: 0 (less than 50% disease control)
Rhizoctonia solani
  disease control rating RSI: 0 (less than 50% disease control)
[3]
  disease control rating PHI: 0 (less than 50% disease control)
Pyricularia oryzae
  disease control rating PO: 0 (less than 50% disease control)
Plasmopara viticola
  disease control rating PVA: 0 (less than 50% disease control)
Leptosphaeria nodorum
  disease control rating LN: 2 (greater than 80% disease control)
Alternaria solani
  disease control rating AS: 0 (less than 50% disease control)
Venturia inaequalis
  disease control rating VII: 2 (greater than 80% disease control)
Phytophthora infestans
  disease control rating PIP: 0 (less than 50% disease control)

## CCCCCC(C)NC1COC2(CCC(C(C)(C)C)CC2)C1 (centres unmarked) [Compound 101]
[1]
  disease control rating EGT: 2 (greater than 80% disease control)
[2]
  disease control rating EGP: 2 (greater than 80% disease control)
Botrytis cinerea
  disease control rating BCB: 2 (greater than 80% disease control)
Rhizoctonia solani
  disease control rating RSI: 0 (less than 50% disease control)
[3]
  disease control rating PHI: 1 (about 50-80% disease control)
Pyricularia oryzae
  disease control rating PO: 0 (less than 50% disease control)
Plasmopara viticola
  disease control rating PVA: 0 (less than 50% disease control)
Leptosphaeria nodorum
  disease control rating LN: 0 (less than 50% disease control)
Alternaria solani
  disease control rating AS: 0 (less than 50% disease control)
Venturia inaequalis
  disease control rating VII: 2 (greater than 80% disease control)
Phytophthora infestans
  disease control rating PIP: 0 (less than 50% disease control)
